From US20210355104A1, “ADENOSINE RECEPTOR BINDING COMPOUNDS” (Nikang Therapeuticsm Inc., priority 2018, published 2021) come the findings set out here.

“And” between values parts separate entries of the source, which are not always exact repeats. Identical values can stand only once. Like-named read-outs stand apart in the source and are kept apart here.

The target in the assay is Adenosine A2A receptor (Homo sapiens, UniProt P29274). Briefly: cAMP assay in 293A cells stably expressing the adenosine A2A receptor (CGS21680 stimulation, HTRF). It counts as cell-based. Further details: expressed in transfected cells; host or cells: 293A cells (Invitrogen, Cat# R705-07) infected with A2A-expressing lentivirus (custom packaged by Biosettia), puromycin selected. The settings on record: 0.1% BSA, read-out: cAMP (nM) 0.1% BSA, 1 uM CGS. (In general: Changes in cAMP serve as a functional read-out for many G protein-coupled receptors.)
Adenosine A2A receptor, sequence (P29274 whole entry): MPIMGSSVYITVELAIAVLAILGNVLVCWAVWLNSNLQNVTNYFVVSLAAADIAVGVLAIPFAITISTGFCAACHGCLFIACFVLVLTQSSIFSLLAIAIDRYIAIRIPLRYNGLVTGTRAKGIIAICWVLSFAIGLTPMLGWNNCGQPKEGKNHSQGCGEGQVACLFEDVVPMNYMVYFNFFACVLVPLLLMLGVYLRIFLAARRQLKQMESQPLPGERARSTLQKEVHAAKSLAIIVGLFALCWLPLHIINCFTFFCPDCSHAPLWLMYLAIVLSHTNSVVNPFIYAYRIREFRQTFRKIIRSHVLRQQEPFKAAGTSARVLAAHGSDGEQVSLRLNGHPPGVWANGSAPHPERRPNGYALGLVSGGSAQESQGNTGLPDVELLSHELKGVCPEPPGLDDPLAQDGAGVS

The mark [1] stands for this setting: 293A cells stably expressing A2A receptor, 1 uM CGS21680 stimulation, replicate values separated by /.

In the case of `Cc1cc(-c2c(OCc3cccc(C#CC(C)(C)C(=O)O)n3)nc(N)nc2-c2ccc(F)cc2)cc(C(F)F)n1` [Example 384, 4-(6-(((2-amino-5-(2-(difluoromethyl)-6-methylpyridin-4-yl)-6-(4-fluorophenyl)pyrimidin-4-yl)oxy)methyl)pyridin-2-yl)-2,2-dimethylbut-3-ynoic acid], for the setting “293A-A2AR cells, 1 uM CGS”, the IC50 worked out at 15400 nM.

For the molecule `Cc1cc(-c2c(OCc3nccn3CCCC(=O)O)nc(N)nc2-c2ccc(F)cc2)cc(C(F)F)n1` [Example 386, 4-(2-(((2-amino-5-(2-(difluoromethyl)-6-methylpyridin-4-yl)-6-(4-fluorophenyl)pyrimidin-4-yl)oxy)methyl)-1H-imidazol-1-yl)butanoic acid], the IC50 (293A-A2AR cells, 1 uM CGS) is 3820 nM. Still for that read-out and setting: the figure for `Cc1cc(-c2c(OCc3cn(C(C)(C)C(=O)O)cn3)nc(N)nc2-c2ccc(F)cc2)cc(C(F)F)n1` [Example 387, 2-(4-(((2-amino-5-(2-(difluoromethyl)-6-methylpyridin-4-yl)-6-(4-fluorophenyl)pyrimidin-4-yl)oxy)methyl)-1H-imidazol-1-yl)-2-methylpropanoic acid] is 16300 nM.

With `Cc1cc(-c2c(OCc3ccn(C(C)(C)C(=O)O)n3)nc(N)nc2-c2ccc(F)cc2)cc(C(F)F)n1` [Example 388, 2-(3-(((2-amino-5-(2-(difluoromethyl)-6-methylpyridin-4-yl)-6-(4-fluorophenyl)pyrimidin-4-yl)oxy)methyl)-1H-pyrazol-1-yl)-2-methylpropanoic acid], the IC50 (293A-A2AR cells, 1 uM CGS) worked out at 7660 nM. As to `CCC(C#N)(CC)c1cccc(COc2nc(N)nc(-c3ccc(F)cc3)c2-c2cc(C)nc(C(F)F)c2)n1` [Example 390, 2-(6-(((2-amino-5-(2-(difluoromethyl)-6-methylpyridin-4-yl)-6-(4-fluorophenyl)pyrimidin-4-yl)oxy)methyl)pyridin-2-yl)-2-ethylbutanenitrile], the IC50 (293A-A2AR cells, 1 uM CGS) is 85 nM and 98 nM and 51 nM.

Turning to `Cc1cc(-c2c(OCc3cccc(C(C)(C)NCC(=O)O)n3)nc(N)nc2-c2ccc(F)cc2)cc(C(F)F)n1` [Example 393, (2-(6-(((2-amino-5-(2-(difluoromethyl)-6-methylpyridin-4-yl)-6-(4-fluorophenyl)pyrimidin-4-yl)oxy)methyl)pyridin-2-yl)propan-2-yl)glycine], the IC50 (293A-A2AR cells, 1 uM CGS) was 628 nM and 597 nM and 892 nM and 826 nM and 566 nM and 686 nM. Same read-out and setting: the figure for `Cc1cc(-c2c(OCc3cccc(C(C)(O)C(=O)O)n3)nc(N)nc2-c2ccc(F)cc2)cc(C(F)F)n1` (centres unmarked) [Example 394, 2-(6-(((2-amino-5-(2-(difluoromethyl)-6-methylpyridin-4-yl)-6-(4-fluorophenyl)pyrimidin-4-yl)oxy)methyl)pyridin-2-yl)-2-hydroxypropanoic acid] is 865 nM and 496 nM; for `Cc1cc(-c2c(OCc3ncc(C(C)(O)C(=O)O)n3C)nc(N)nc2-c2ccc(F)cc2)cc(C(F)F)n1` (centres unmarked) [Example 395, 2-(2-(((2-amino-5-(2-(difluoromethyl)-6-methylpyridin-4-yl)-6-(4-fluorophenyl)pyrimidin-4-yl)oxy)methyl)-1-methyl-1H-imidazol-5-yl)-2-hydroxypropanoic acid] it is > 50000 nM.

As for `Cc1cc(-c2c(OCc3nc4cccc(C(C)(C)O)c4n3C)nc(N)nc2-c2ccc(F)cc2)cc(C(F)F)n1` [Example 396, 2-(2-(((2-amino-5-(2-(difluoromethyl)-6-methylpyridin-4-yl)-6-(4-fluorophenyl)pyrimidin-4-yl)oxy)methyl)-1-methyl-1H-benzo[d]imidazol-7-yl)propan-2-ol], the IC50 under setting [1] was 869 nM and 634 nM. Take `Cc1cc(-c2c(COc3cccc(C(C)C)n3)nc(N)nc2-c2ccc(F)cc2)cc(C(F)F)n1` [Example 397, 5-(2-(difluoromethyl)-6-methylpyridin-4-yl)-4-(4-fluorophenyl)-6-(((6-isopropylpyridin-2-yl)oxy)methyl)pyrimidin-2-amine]: the IC50 under setting [1] was 9.4 nM and 32 nM and 26 nM and 17 nM. Regarding `Cc1cc(-c2c(OCc3cccc(C(C)(C)c4nn[nH]n4)n3)nc(N)nc2-c2ccc(F)cc2)cc(C(F)F)n1` [Example 400, 4-((6-(2-(2H-tetrazol-5-yl)propan-2-yl)pyridin-2-yl)methoxy)-5-(2-(difluoromethyl)-6-methylpyridin-4-yl)-6-(4-fluorophenyl)pyrimidin-2-amine], the IC50 under setting [1] was 1000 nM and 1470 nM and 1440 nM.

As to `Cc1cc(-c2c(OCc3nc(C(C)(C)O)cn3C)nc(N)nc2-c2ccc(F)cc2)cc(C(F)F)n1` [Example 401, 2-(2-(((2-amino-5-(2-(difluoromethyl)-6-methylpyridin-4-yl)-6-(4-fluorophenyl)pyrimidin-4-yl)oxy)methyl)-1-methyl-1H-imidazol-4-yl)propan-2-ol], under setting [1], the IC50 was 318 nM and 246 nM and 259 nM. For `Cc1cc(-c2c(OCc3nc(C(C)(C)O)cc4ccccc34)nc(N)nc2-c2ccc(F)cc2)cc(C(F)F)n1` [Example 404, 2-(1-(((2-amino-5-(2-(difluoromethyl)-6-methylpyridin-4-yl)-6-(4-fluorophenyl)pyrimidin-4-yl)oxy)methyl)isoquinolin-3-yl)propan-2-ol], the IC50 under setting [1] was 1370 nM and 1800 nM.

For the molecule `Cc1cc(-c2c(OCc3nc(OCC(=O)O)cc4ccccc34)nc(N)nc2-c2ccc(F)cc2)cc(C(F)F)n1` [Example 405, 2-((1-(((2-amino-5-(2-(difluoromethyl)-6-methylpyridin-4-yl)-6-(4-fluorophenyl)pyrimidin-4-yl)oxy)methyl)isoquinolin-3-yl)oxy)acetic acid], the IC50 under setting [1] was 619 nM. In the case of `Cc1cc(-c2c(OCc3nc(NCC(=O)O)cc4ccccc34)nc(N)nc2-c2ccc(F)cc2)cc(C(F)F)n1` [Example 406, (1-(((2-amino-5-(2-(difluoromethyl)-6-methylpyridin-4-yl)-6-(4-fluorophenyl)pyrimidin-4-yl)oxy)methyl)isoquinolin-3-yl)glycine], under setting [1], the IC50 was determined as 719 nM.

Regarding `Cc1cc(-c2c(OCc3cccc(CNS(C)(=O)=O)n3)nc(N)nc2-c2ccc(F)cc2)cc(C(F)F)n1` [Example 409, N-((6-(((2-amino-5-(2-(difluoromethyl)-6-methylpyridin-4-yl)-6-(4-fluorophenyl)pyrimidin-4-yl)oxy)methyl)pyridin-2-yl)methyl) methanesulfonamide], under setting [1], the IC50 was 977 nM and 822 nM. Turning to `Cc1cc(-c2c(OCc3cccc(NS(C)(=O)=O)n3)nc(N)nc2-c2ccc(F)cc2)cc(C(F)F)n1` [Example 411, N-(6-(((2-amino-5-(2-(difluoromethyl)-6-methylpyridin-4-yl)-6-(4-fluorophenyl)pyrimidin-4-yl)oxy)methyl)pyridin-2-yl)methanesulfonamide], the IC50 under setting [1] was 3190 nM. Take `Cc1cc(-c2c(OCc3cccc(CN)n3)nc(N)nc2-c2ccc(F)cc2)cc(C(F)F)n1` [Example 412, 4-((6-(aminomethyl)pyridin-2-yl)methoxy)-5-(2-(difluoromethyl)-6-methylpyridin-4-yl)-6-(4-fluorophenyl)pyrimidin-2-amine]: the IC50 under setting [1] is 503 nM and 747 nM.

In the case of `Cc1cc(-c2c(OCc3cccc(CNCC(=O)O)n3)nc(N)nc2-c2ccc(F)cc2)cc(C(F)F)n1` [Example 414, ((6-(((2-amino-5-(2-(difluoromethyl)-6-methylpyridin-4-yl)-6-(4-fluorophenyl)pyrimidin-4-yl)oxy)methyl)pyridin-2-yl)methyl)glycine], the IC50 under setting [1] is 2050 nM.

As for `Cc1cc(-c2c(OCc3nccc4c3nnn4C)nc(N)nc2-c2ccc(F)cc2)cc(C(F)F)n1` [Example 416, 5-(2-(difluoromethyl)-6-methylpyridin-4-yl)-4-(4-fluorophenyl)-6-((1-methyl-1H-[1,2,3]triazolo[4,5-c]pyridin-4-yl)methoxy)pyrimidin-2-amine], the IC50 under setting [1] was 498 nM and 615 nM. Consider `Cc1cc(-c2c(OCc3cc(C(C)(C)O)cc(C(C)(C)O)n3)nc(N)nc2-c2ccc(F)cc2)cc(C(F)F)n1` [Example 421, 2,2′-(6-(((2-amino-5-(2-(difluoromethyl)-6-methylpyridin-4-yl)-6-(4-fluorophenyl)pyrimidin-4-yl)oxy)methyl)pyridine-2,4-diyl)bis(propan-2-ol)], for which the IC50 under setting [1] worked out at 3420 nM. With `Cc1cc(-c2c(OCc3nccc4c3cnn4C)nc(N)nc2-c2ccc(F)cc2)cc(C(F)F)n1` [Example 423, 5-(2-(difluoromethyl)-6-methylpyridin-4-yl)-4-(4-fluorophenyl)-6-((1-methyl-1H-pyrazolo[4,3-c]pyridin-4-yl)methoxy)pyrimidin-2-amine], the IC50 under setting [1] was 435 nM and 732 nM.

For `Cc1cc(-c2c(OCc3cc(N4CCOCC4)cc(C(C)(C)O)n3)nc(N)nc2-c2ccc(F)cc2)cc(C(F)F)n1` [Example 424, 2-(6-(((2-amino-5-(2-(difluoromethyl)-6-methylpyridin-4-yl)-6-(4-fluorophenyl)pyrimidin-4-yl)oxy)methyl)-4-morpholinopyridin-2-yl)propan-2-ol], the IC50 under setting [1] was 5930 nM and 9830 nM.

On to `Cc1cc(-c2c(OCc3cc(C(C)(C)O)cc(-c4nnnn4C)n3)nc(N)nc2-c2ccc(F)cc2)cc(C(F)F)n1` [Example 426, 2-(2-(((2-amino-5-(2-(difluoromethyl)-6-methylpyridin-4-yl)-6-(4-fluorophenyl)pyrimidin-4-yl)oxy)methyl)-6-(1-methyl-1H-tetrazol-5-yl)pyridin-4-yl)propan-2-ol], for which, under setting [1], the IC50 is 7980 nM and 6190 nM. For `Cc1cc(-c2c(OCc3cc(C(C)(C)O)cc(-c4nnn(C)n4)n3)nc(N)nc2-c2ccc(F)cc2)cc(C(F)F)n1` [Example 427, 2-(2-(((2-amino-5-(2-(difluoromethyl)-6-methylpyridin-4-yl)-6-(4-fluorophenyl)pyrimidin-4-yl)oxy)methyl)-6-(2-methyl-2H-tetrazol-5-yl)pyridin-4-yl)propan-2-ol], the IC50 under setting [1] is 5150 nM and 6010 nM.

For `Cc1cc(-c2c(OCc3ccc(=O)n(C(C)(C)C(=O)O)n3)nc(N)nc2-c2ccc(F)cc2)cc(C(F)F)n1` [Example 428, 2-(3-(((2-amino-5-(2-(difluoromethyl)-6-methylpyridin-4-yl)-6-(4-fluorophenyl)pyrimidin-4-yl)oxy)methyl)-6-oxopyridazin-1(6H)-yl)-2-methylpropanoic acid], the IC50 under setting [1] was > 30000 nM.
